These results are taken from patent publication US20230278953A1, “WATER SOLUBLE PRODRUGS OF PTBA FOR USE IN HDAC INHIBITION AND ENHANCING RENAL RECOVERY FOLLOWING ACUTE KIDNEY INJURY” (KLOTHO THERAPEUTICS, INC., priority 2020, published 2023).

For data set [1], the system named is Ischemia-Reperfusion Induced Acute Kidney Injury (IRI-AKI). Description: Ischemia-Reperfusion Induced Acute Kidney Injury (IRI-AKI) in rats. In kind it is in vivo, Sprague Dawley male rats. To be noted: 10 mg/kg IV, seven days repeated; 60 minutes bilateral renal occlusion; 3 days after IRI; vs Vehicle treated group. How it is done:
The aim of the study was to investigate the efficacy of test compounds in the model of Ischemia-Reperfusion Induced Acute Kidney Injury (IRI-AKI) in Sprague Dawley male rats. IRI-AKI model was developed in experimental animals by applying bilateral renal occlusion. The duration of the occlusion was equal 60 minutes. For instance, rhe effects of seven days repeated intravenous (IV) administration of compound 22 of 10 mg/kg on pathology dynamics in rats exposed to IRI-AKI was assessed. […] Serum analysis for creatinine was performed one day prior to ischemia-reperfusion surgery, 24 hours after, and on the 3rd, 5th, and 7th day after IRI-AKI intervention. Study design, animal selection, handling and treatment were all in accordance with the CRO's study protocols and Institutional Animal Care and Use Guidelines Animal treatment and serum samples preparation were conducted by the Animal Laboratory personnel at the CRO. 28 male Sprague Dawley rats 11-14 weeks old were randomized by body weight All experimental animal were anesthetized prior to surgical intervention by Telazol at the dose of 40 mg/kg body weight and Xylazine at the dose of 7 mg/kg body weight. Acute renal injury model was achieved by performing bilateral renal occlusion. […] Creatinine was measured using mModified Jaffe's method, without deproteinization. […]

The nature of data set [2]: Determination of Kinetic Solubility. In kind it is physicochemical. To be noted: phosphate-buffered saline, aqueous buffer, kinetic from dmso stock; PBS pH 7.4, 2% final DMSO, 25° C., two hours; effective range approximately 2-400 μM. On the procedure: A 20 mM stock solution of the test compound in 100% DMSO dilutions were prepared to a theoretical concentration of 400 μM in duplicates in phosphate-buffered saline pH 7.4 (138 mM NaCl, 2.7 mM KCl, 10 mM K-phosphate) with 2% final DMSO. The experimental compound dilutions in PBS were further allowed to equilibrate at 25° C. on a thermostatic shaker for two hours and then filtered through HTS filter plates using a vacuum manifold. The filtrates of test compounds were diluted 2-fold with acetonitrile with 2% DMSO before measuring.
In parallel, compound dilutions in 50% acetonitrile/PBS were prepared to theoretical concentrations of 0 μM (blank), 10 μM, 25 μM, 50 μM, 100 μM, and 200 μM with 2% final DMSO to generate calibration curves. Ondansetron was used as reference compound to control proper assay performance 200 μl of each sample was transferred to 96-well plate and measured in 200-550 nm range with 5 nm step.
The concentrations of compounds in PBS filtrate were calculated using a dedicated Microsoft Excel calculation script. Proper absorbance wavelengths for calculations were selected for each compound manually based on absorbance maximums (absolute absorbance unit values for the minimum and maximum concentration points within 0-3 OD range). Each of the final datasets was additionally visually evaluated by the operator and goodness of fit (R2) was calculated for each calibration curve.

The subject of data set [3] is cisplatin-induced acute kidney injury (CI-AKI). Kind of data set: cisplatin-induced acute kidney injury (CI-AKI) mouse model, Compound 22. To be noted: for gradual recovery of mean body weight: cisplatin 11 mg/kg IP Day 0. In kind it is in vivo, C57BL/6J mice. On the procedure:
The aim of the study was to investigate the efficacy of test compound(s) in a (mouse) model for acute kidney injury. Specifically, the study investigated the efficacy of test compound(s) in cisplatin-induced acute kidney injury (CI-AKI) mouse model. For example, the effect of daily repeated intraperitoneal (IP) administration of Compound 22 at doses of 50 mg/kg for 7 consecutive days in four different treatment regimens on development of pathology in mice in CI-AKI model was evaluated. Serum analysis for urea (BUN) was performed on the 5th day and 12th days after cisplatin administration. The mean body weight loss per group was calculated every day of the study as percentage loss of initial (day 0) weight for each individual animal.
Study design, animal selection, handling and treatment were all in accordance with the CRO's study protocols and Institutional Animal Care and Use Guidelines Animal treatment and serum samples preparation were conducted by the Animal Laboratory personnel at the CRO. 100 female C57BL/6J mice 11-14 weeks old were randomized by body weight and divided into five groups, 20 animals each. Body weights ranged from 16.9 to 22.5 g with an average body weight across all groups 19.54 g (SD=1.04; CV=5.3%). Each mouse was treated with a single dose via IP route of administration with cisplatin at the dose of 11 mg/kg on the day 0 of the study. The mice in Group 2 and 4 were repeatedly treated with Compound 22 at the dose of 50 mg/kg with an interval of 24 h for seven consecutive days starting from Day 2 or Day 0 of the study, respectively. […]
To induce acute kidney injury, Cisplatin was administered without dilution as a factory-made 1 mg/ml solution for infusion at the injection volume of 11 ml/kg for the dose of 11 mg/kg. […] Urea (BUN) was determined in the serum using a commercial kit according to the manufacturer's instructions. […] The rate of absorbance change at λ=340 nm is proportional to the urea concentration. […]

In another data set the test system is renal progenitor cells. To be noted: zebrafish embryos; proliferation-dependent manner; cited from earlier work.

One may read the solubility (kinetic) as the concentration staying in solution when a stock, usually in DMSO, is diluted into the medium. In the case of `C[N+](C)(C)CCOC(=O)CCCSc1ccccc1.[Cl-]` [Compound 22, N,N,N-trimethyl-2-{[4-(phenylsulfanyl)butanoyl]oxy}ethan-1-aminium chloride], in data set [1], the “Creatinine level in serum” value is “significantly decreased”. The compound also registered a solubility (kinetic) at 2 h in data set [2] of 398 µM. Moreover, the “gradual recovery of mean body weight” value was “beginning from the fifth day of the study” in data set [3] (G2-G3: 50 mg/kg IP once or twice a day for seven days starting Day 2) and “beginning from the seventh day of the study” in data set [3] (G4-G5: 50 mg/kg IP once or twice a day for seven days starting Day 0). Also, the “mean level of urea in serum compared to G1” value in data set [3] (G2-G5, 50 mg/kg IP, 5th day after the cisplatin injection, vs untreated G1) is “significantly less”.

On to `O=C(O)CCCSc1ccccc1` [PTBA, 4-(phenylthio)butanoic acid], for which the “effect on pool of renal progenitor cells” value in the data set on renal progenitor cells is listed as “seemed to expand the pool of renal progenitor cells”.
